Experimental data taken from patent US7935720B2, “Crystal of substituted phenylalkanoic acid ester and process for producing the same” (Asahi Kasei Pharma Corporation, priority 2006, dated 2011).

What was measured:
leukotriene production = settings: reported in Patent Document 1; cited from earlier work
prostaglandin production = settings: reported in Patent Document 1; cited from earlier work
[1] = Measurement of water content after filtration; format: physicochemical; settings: wet crystals after filtration and dehydration; calculated from weight of wet crystals and weight after drying
Experimental: The respective water contents of the crystals obtained in Example 10 and Example 11 were calculated from the weight of the wet crystals and the weight of the crystals after drying.

[2] = Solubility test in Japanese Pharmacopoeia disintegration test fluids (HPLC); format: physicochemical; settings: for Solubility to 1st fluid for disintegration test of Japanese Pharmacopoeia (pH 1.2) / Solubility to 2nd fluid for disintegration test of Japanese Pharmacopoeia (pH 6.8): shaken for 24 hours at 37° C.
Experimental: The type A crystals of compound 1 of the invention prepared according to Example 3, and the type B crystals of compound 1 of the invention prepared according to Example 4 were respectively weighed to 10 mg in a 10-mL centrifuge tube, 3 mL each of 1st fluid for disintegration test of Japanese Pharmacopoeia (pH 1.2) was added respectively, and the mixture solutions were shaken for 24 hours at 37° C. After the shaking, the solutions were filtered, 1 mL of each filtrate was exactly pipeted, and 1 mL of acetonitrile was exactly added to obtain a sample solution.
The sample solutions were analyzed by using HPLC technique with the following conditions and the concentration of the compound in the sample solution was determined by comparing it with that of a standard solution having an already known concentration under the following HPLC conditions, to determine the solubility.
The same test was performed with 2nd fluid for disintegration test of Japanese Pharmacopoeia (pH 6.8), to determine the solubility.
Detector: Ultraviolet absorption spectrometer (wavelength: 235 nm)
Mobile phase: 50 mmol/L sodium dihydrogen phosphate/acetonitrile (55:45)
Column: YMC-Pack Pro C18, internal diameter: 4.6 mm, length: 15 cm (YMC Corporation)
Column temperature: 40° C.

[3] = system: footpad edema in rat adjuvant arthritis; experiment: Prophylactic and therapeutic effect against rat adjuvant arthritis; format: in vivo; settings: oral, 0.1 to 50 mg/0.2 ml/kg, suspended in 0.5% methylcellulose; compared with the positive control group
Experimental: For the compounds of the invention, a suppressive effect against footpad edema in rat adjuvant arthritis, which is a disease model for chronic rheumatoid arthritis as being one of autoimmune diseases and also a chronic inflammatory disease, was investigated according to the method of International Patent Publication No. WO 03/70686. The test compound was suspended in purified water containing 0.5% methylcellulose, and was orally administered to test animals at a dose of 0.1 to 50 mg/0.2 ml/kg.

| Water content [1] | Solubility of type A crystal relative to type B crystal ([2]; 1st fluid (pH 1.2) and 2nd fluid (pH 6.8)) | Solubility to 1st fluid for disintegration test of Japanese Pharmacopoeia (pH 1.2) [2] | Solubility to 2nd fluid for disintegration test of Japanese Pharmacopoeia (pH 6.8) [2] | SMILES | Leukotriene production suppressing effect (leukotriene production) | Prostaglandin production suppressing effect (prostaglandin production) | Suppression of footpad edema in rat adjuvant arthritis [3] |
| --- | --- | --- | --- | --- | --- | --- | --- |
| – | – | – | – | Cn1ncc2cc(-c3cc(CCC(=O)O)cc(N)c3OC3Cc4ccccc4C3)ccc21 [Compound 1, 3-[3-amino-4-(indan-2-yloxy)-5-(1-methyl-1H-indazol-5-yl)phenyl]propionic acid] | leukotriene production suppressing effect | prostaglandin production suppressing effect | – |
| 52.5% | three-fold greater | 0.03 mg/mL | 0.06 mg/mL | Cn1ncc2cc(-c3cc(CCC(=O)O)cc(N)c3OC3Cc4ccccc4C3)ccc21 [Type A crystal, 3-[3-amino-4-(indan-2-yloxy)-5-(1-methyl-1H-indazol-5-yl)phenyl]propionic acid] | – | – | suppressed footpad edema |
| 39.3% | – | 0.01 mg/mL | 0.02 mg/mL | Cn1ncc2cc(-c3cc(CCC(=O)O)cc(N)c3OC3Cc4ccccc4C3)ccc21 [Type B crystal, 3-[3-amino-4-(indan-2-yloxy)-5-(1-methyl-1H-indazol-5-yl)phenyl]propionic acid] | – | – | suppressed footpad edema |
